“And” between values parts separate entries of the source, which are not always exact repeats. Equal entries are not always repeated. Inconclusive results and toxic doses are left out. Rule as the data show it: active = T/C of 150% or more; inactive = T/C below 125%.
System: L1210 leukemia ip in BDF1 mice, survival T/C
Experiment: NCI In Vivo Anticancer Drug Screen. Data for tumor model L1210 Leukemia (intraperitoneal) in B6D2F1 (BDF1) mice
Conditions: endpoint: mean survival time, higher = longer survival
Method in brief: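 In this screen, tumor-bearing mice given compound are compared to those given vehicle, and their survival values are reported as a treated-to-control quotient.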

[1] = dose: 100.0 mg/kg/injection, schedule: Q01DX009 (ip), vehicle: saline
[2] = dose: 200.0 mg/kg/injection, schedule: Q01DX009 (ip), vehicle: saline
[3] = dose: 400.0 mg/kg/injection, schedule: Q01DX009 (ip), vehicle: saline
[4] = dose: 100.0 mg/kg/injection, schedule: Q04DX003 (ip), vehicle: Klucel (hydroxypropylcellulose) (HPC)
[5] = dose: 200.0 mg/kg/injection, schedule: Q04DX003 (ip), vehicle: Klucel (hydroxypropylcellulose) (HPC)
[6] = dose: 400.0 mg/kg/injection, schedule: Q04DX003 (ip), vehicle: Klucel (hydroxypropylcellulose) (HPC)
[7] = dose: 100.0 mg/kg/injection, schedule: Q04DX003 (ip), vehicle: saline
[8] = dose: 200.0 mg/kg/injection, schedule: Q04DX003 (ip), vehicle: saline
[9] = dose: 400.0 mg/kg/injection, schedule: Q04DX003 (ip), vehicle: saline
[10] = dose: 100.0 mg/kg/injection, schedule: Q01DX009 (ip), vehicle: Klucel (hydroxypropylcellulose) (HPC)
[11] = dose: 200.0 mg/kg/injection, schedule: Q01DX009 (ip), vehicle: Klucel (hydroxypropylcellulose) (HPC)
[12] = dose: 100.0 mg/kg/injection, schedule: Q01DX009 (ip), vehicle: saline with Tween-80
[13] = dose: 100.0 mg/kg/injection, schedule: Q04DX003 (ip), vehicle: saline with Tween-80
[14] = dose: 200.0 mg/kg/injection, schedule: Q04DX003 (ip), vehicle: saline with Tween-80
[15] = dose: 400.0 mg/kg/injection, schedule: Q01DX009 (ip), vehicle: saline with Tween-80
[16] = dose: 400.0 mg/kg/injection, schedule: Q04DX003 (ip), vehicle: saline with Tween-80
[17] = dose: 400.0 mg/kg/injection, schedule: Q01DX009 (ip), vehicle: Klucel (hydroxypropylcellulose) (HPC)
[18] = dose: 100.0 mg/kg/injection, schedule: Q01DX001 (ip), vehicle: saline
[19] = dose: 200.0 mg/kg/injection, schedule: Q01DX001 (ip), vehicle: saline
[20] = dose: 400.0 mg/kg/injection, schedule: Q01DX001 (ip), vehicle: saline
[21] = dose: 100.0 mg/kg/injection, schedule: Q04DX002 (ip), vehicle: Klucel (hydroxypropylcellulose) (HPC)
[22] = dose: 200.0 mg/kg/injection, schedule: Q04DX002 (ip), vehicle: Klucel (hydroxypropylcellulose) (HPC)
[23] = dose: 25.0 mg/kg/injection, schedule: Q01DX009 (ip), vehicle: saline
[24] = dose: 50.0 mg/kg/injection, schedule: Q01DX009 (ip), vehicle: saline

Measured: T/C

COC(=O)CCC#N
inactive: [1] 101 % of control | [2] 91 % of control | [3] 102 % of control

O=[N+]([O-])c1ccc(/C=C/c2ccccn2)s1
inactive: [4] 96 % of control | dose: 100.0 mg/kg/injection, schedule: Q04DX003 (ip), vehicle: water 101 % of control | [5] 112 % of control | dose: 200.0 mg/kg/injection, schedule: Q04DX003 (ip), vehicle: water 98 % of control | [6] 96 % of control | dose: 400.0 mg/kg/injection, schedule: Q04DX003 (ip), vehicle: water 97 % of control

Nc1ccc(CCO)cc1
inactive: [7] 105 % of control | [8] 96 % of control | [9] 96 % of control

COc1ccc(N=Cc2ccc(C=Nc3ccc(OC)cc3)cc2)cc1
inactive: dose: 25.0 mg/kg/injection, schedule: Q04DX003 (ip), vehicle: Klucel (hydroxypropylcellulose) (HPC) 96 % of control | dose: 50.0 mg/kg/injection, schedule: Q01DX009 (ip), vehicle: Klucel (hydroxypropylcellulose) (HPC) 90 % of control | dose: 50.0 mg/kg/injection, schedule: Q04DX003 (ip), vehicle: Klucel (hydroxypropylcellulose) (HPC) 98 % of control | [10] 97 % of control | [4] 96 % of control | [11] 88 % of control

O=[N+]([O-])c1ncn[nH]1
inactive: [12] 96 % of control | [13] 102 % of control | [14] 97 % of control | [15] 87 % of control | [16] 92 % of control

COc1cc(/C=N/NC(=O)c2cccs2)cc(OC)c1OC
inactive: [12] 98 % of control | dose: 200.0 mg/kg/injection, schedule: Q01DX009 (ip), vehicle: saline with Tween-80 94 % of control | [15] 98 % of control

CCCCSCCOC(=O)Nc1ccc(Cl)cc1
inactive: [10] 103 % of control | [11] 108 % of control | [17] 92 % of control

CC1CCCCC1=C(C#N)C#N (centres undefined)
inactive: dose: 5.0 mg/kg/injection, schedule: Q01DX001 (ip), vehicle: saline 97 % of control | dose: 10.0 mg/kg/injection, schedule: Q01DX001 (ip), vehicle: saline 121 % of control | dose: 20.0 mg/kg/injection, schedule: Q01DX001 (ip), vehicle: saline 94 % of control | dose: 40.0 mg/kg/injection, schedule: Q01DX001 (ip), vehicle: saline 103 % of control

CC/C(=N/N(C)C)c1ccccc1
inactive: [7] 96 % of control | [8] 93 % of control

COc1cc(C)c(Cl)c(C)c1C(C)=O
inactive: [10] 101 % of control | [4] 95 % of control | [11] 100 % of control | [5] 101 % of control | [17] 101 % of control | [6] 97 % of control

COc1ccc(NC(C)=O)cc1
inactive: dose: 100.0 mg/kg/injection, schedule: Q01DX001 (ip), vehicle: Klucel (hydroxypropylcellulose) (HPC) 107 % of control | dose: 200.0 mg/kg/injection, schedule: Q01DX001 (ip), vehicle: Klucel (hydroxypropylcellulose) (HPC) 100 % of control | dose: 400.0 mg/kg/injection, schedule: Q01DX001 (ip), vehicle: Klucel (hydroxypropylcellulose) (HPC) 103 % of control

Cc1cc2[nH]c(=O)[nH]c2cc1C
inactive: [13] 98 % of control | [14] 88 % of control

c1ccc(CC2CCCC2)cc1
inactive: [4] 93 % of control | [5] 95 % of control | dose: 300.0 mg/kg/injection, schedule: Q04DX003 (ip), vehicle: Klucel (hydroxypropylcellulose) (HPC) 106 % of control

Nc1ncnc2c1cnn2CCCl
inactive: [18] 101 % of control | [7] 106 % of control | dose: 132.0 mg/kg/injection, schedule: Q04DX003 (ip), vehicle: saline 104 % of control and 123 % of control | [19] 101 % of control | [8] 102 % of control and 124 % of control | dose: 300.0 mg/kg/injection, schedule: Q04DX003 (ip), vehicle: saline 104 % of control | [20] 102 % of control | [9] 101 % of control

CCN1CCC2C[N+](C)([O-])CCN2C1=O (centres undefined)
inactive: [13] 93 % of control | [14] 95 % of control | [16] 98 % of control

O=[N+]([O-])c1ccc(-n2ccnc2)c([N+](=O)[O-])c1
inactive: [21] 100 % of control | [22] 100 % of control | dose: 400.0 mg/kg/injection, schedule: Q04DX002 (ip), vehicle: Klucel (hydroxypropylcellulose) (HPC) 93 % of control

S=C(Nc1ccccc1)Nc1cccc2ccccc12
inactive: dose: 50.0 mg/kg/injection, schedule: Q01DX001 (ip), vehicle: saline 97 % of control | [18] 103 % of control | [10] 105 % of control | [21] 87 % of control | [19] 97 % of control | [11] 105 % of control | [22] 87 % of control | [20] 94 % of control | [17] 112 % of control

COc1cc(C(O)CN)cc(OC)c1OC (centres undefined)
inactive: [23] 100 % of control | dose: 25.0 mg/kg/injection, schedule: Q04DX003 (ip), vehicle: saline 88 % of control | [24] 94 % of control | dose: 50.0 mg/kg/injection, schedule: Q04DX003 (ip), vehicle: saline 94 % of control | [1] 104 % of control | [7] 88 % of control | [2] 110 % of control | [8] 94 % of control | [9] 91 % of control

O=C(Cn1cc(F)c(=O)[nH]c1=O)c1cccs1
inactive: [1] 89 % of control | [7] 100 % of control | [2] 89 % of control | [8] 106 % of control | [3] 89 % of control | [9] 111 % of control

O=C(OCC1OC(n2nnc3ccnc(Cl)c32)C(OC(=O)c2ccccc2)C1OC(=O)c1ccccc1)c1ccccc1 (centres undefined)
inactive: dose: 50.0 mg/kg/injection, schedule: Q01DX005 (ip), vehicle: saline with Tween-80 93 % of control | dose: 100.0 mg/kg/injection, schedule: Q01DX005 (ip), vehicle: saline with Tween-80 98 % of control | dose: 200.0 mg/kg/injection, schedule: Q01DX005 (ip), vehicle: saline with Tween-80 104 % of control

O=C(OCc1ccccc1CN1CCOCC1)c1ccc([N+](=O)[O-])cc1Cl
inactive: dose: 25.0 mg/kg/injection, schedule: Q04DX002 (ip), vehicle: Klucel (hydroxypropylcellulose) (HPC) 92 % of control | dose: 50.0 mg/kg/injection, schedule: Q04DX002 (ip), vehicle: Klucel (hydroxypropylcellulose) (HPC) 106 % of control | [21] 100 % of control

CN1CN(c2ccccc2)C2(CCN(C(=O)/C=C/c3ccc(F)cc3)CC2)C1=O
inactive: dose: 75.0 mg/kg/injection, schedule: Q04DX003 (ip), vehicle: Klucel (hydroxypropylcellulose) (HPC) 92 % of control | dose: 150.0 mg/kg/injection, schedule: Q04DX003 (ip), vehicle: Klucel (hydroxypropylcellulose) (HPC) 88 % of control

CCCN(CCC)CCCN(CCC)CCCCN(CCC)CCCN(CCC)CCC
inactive: [18] 98 % of control

NC(CO)C(=O)O.[Cl-].[Cl-].[Cl-].[Cl-].[Pt+2] (centres undefined)
inactive: dose: 12.5 mg/kg/injection, schedule: Q01DX009 (ip), vehicle: saline 114 % of control and 117 % of control | [23] 122 % of control | [24] 119 % of control

Source: PubChem BioAssay AID248 (DTP/NCI, 2004)
